Starred links: 1 amine or outer side, 2 acyl side, 3 side chain; linkers in the order of their positions; H or OH if unused. Positions of bridges follow the written chain, without caps; N, C: chain ends. Non-standard residues stand in square brackets, D forms with d. Residues, ends and D or L forms follow the SMILES beside them. *: point of attachment. βAsp = O=C(O)[C@H](CC(=O)[*:2])N[*:1]; His(π-Me) = Cn1cncc1C[C@H](N)C(=O)O; For = O=C*
Legend:
[1] = test system: M. tuberculosis (GyrA D94N); assay type: cell-based, Mycobacterium tuberculosis
[2] = test system: Mycobacterium tuberculosis H37Rv mc^26020 gyrA G88S; assay: MIC, broth microdilution; assay type: cell-based
[3] = test system: Mycobacterium tuberculosis H37Rv mc^26020 gyrA G88C; assay: MIC, broth microdilution; assay type: cell-based
[4] = test system: M. tuberculosis bacA (Rv1819c) mutants (L469P, L470P and S577R); assay type: cell-based, Mycobacterium tuberculosis

## C[C@@H](O)[C@H](NC(=O)[C@H](Cc1c[nH]c2ccccc12)NC=O)C(=O)N[C@H](CCCNC(=N)N)C(=O)N[C@@H]1C(=O)N[C@@H](Cc2cncn2C)C(=O)N[C@H](C(=O)O)CC(=O)N[C@H](CO)C(=O)N[C@@H](Cc2ccccc2)C(=O)NCC(=O)N[C@H](CCCNC(=N)N)C(=O)N[C@@H](CO)C(=O)N[C@H](C(=O)O)CC(=O)O[C@@H]1C [evybactin] (For-WT[dR]T[His(π-Me)][βAsp][dS]FG[dR]S[βAsp]; ester 4-C)
[1]
  effect of GyrA D94N mutation on susceptibility: did not have any effect

## COc1c(N2C[C@@H]3CCCN[C@@H]3C2)c(F)cc2c(=O)c(C(=O)O)cn(C3CC3)c12 [moxifloxacin]
[2]
  susceptibility of GyrA G88S mutant: more susceptible
[3]
  susceptibility of GyrA G88C mutant: resistant

## bleomycin
[4]
  MIC (after shift): 1 µg/mL

— paper PMC9844538 (Nature chemical biology, 2022)
